From patent US20230240958A1, “COSMETIC COMPOSITION WITH ENHANCED COLOR STABILITY FOR RETINOIC ACID PRECURSOR” (Conopco, Inc., d/b/a UNILEVER, priority 2020, published 2023)

Assay: Color stability by LabScan XE (CIELAB L*, a*, b*, ΔE) after storage
Type: physicochemical
Conditions: Examples 3 and 4
Procedure: Generally, ΔE≤10 is acceptable, ΔE between 10 to 20 is negotiable and ΔE>20 is unacceptable. For the b* value, the values represent a blue-yellow component of an object's color, wherein a negative (−) value represents movement into the blue color space while a positive (+) value represents movement into the yellow color space. A b* value of 0 represents a true neutral gray value.
Color stability is determined through the use of LabScan XE equipment (Hunter Associates Laboratory, Inc. Reston, Va.). LabScan XE measures color data. Samples at different storage stages housed in vials or in measurement cells are loaded onto the LabScan XE measurement port. By following the measurement procedure specified in the associated instrument menu and computer software, colors (a*, b* and L*) are measured and calculated to result in a color change data (ΔE) value. b* is the scale of blue-yellow space based on the CIELAB color space model, wherein an increase in b* value indicates the increase in yellow color components, and the decrease of b* value indicates the increase of blue color components.

## CCCCCCCCCCCCCC(=O)OC(C)C [isopropyl myristate]
  color stability / ΔE over time, comparison in words: greater color stability
